Laboratory results reported in patent publication US20250255791A1, “POWDER COSMETIC CONTAINING ULTRAVIOLET WAVELENGTH-CONVERTING SUBSTANCE, AND METHOD FOR PRODUCING SAME” (Shiseido Company, Ltd., priority 2019, published 2025).

Key:
[1] = test system: Human dermal fibroblasts; assay: Experiment 2: influence of C-phycocyanin concentration and UV intensity on cell activity (AlamarBlue); format: cell-based; details: UV 0-100 mJ/cm^2, FIG. 3
Protocol: (§1) A cell sample was prepared as follows: 1. Human dermal fibroblasts and human skin keratinocytes purchased from Kurabo Industries Ltd. were used. A cell suspension (1 mL) stored in liquid nitrogen was thawed in a water bath (37° C.) to an extent that small ice pellets remained, and then diluted with 9 mL of warm medium. 2. The diluted suspension was mixed gently and then transferred to a T75 flask and incubated overnight at 37° C. 3. The next day, the medium was replaced with 10 mL of fresh medium. 4. The medium was replaced periodically (once every 2 days for fibroblasts and once every 2 to 3 days for keratinocytes) and cell proliferation was continued. Meanwhile, the cells were observed using a microscope, and it was confirmed that the cells grew in the correct form. 5. After the cells reached about 80% confluence, the cells were passaged. The cells were passaged by washing the cells once with 10 mL of warm PBS, adding 5 mL of warm trypsin to a T75 flask, covering the bottom of the flask with a trypsin solution, followed by aspirating at room temperature for 1 minute. 6. The flask was allowed to stand in an oven at 37° C. for (maximum) 2 minutes for fibroblasts and (maximum) 7 minutes for keratinocytes. The cells were observed using a microscope and confirmed to be small and oval. 7. Thereafter, the side of the T75 flask was lightly tapped to release the cells. […]

[2] = test system: Human dermal fibroblasts; assay: Experiment 3: restoration of cell activity decreased by prior UV irradiation (AlamarBlue); format: cell-based; details: pre-irradiation 400 mJ/cm^2 without substance, then UV 0-200 mJ/cm^2 through 0.4% or 2% solution; FIG. 5
Protocol: as §1

C-phycocyanin was tested, and the “cell activity (relative fluorescence intensity) on UV irradiation” value ([1]; 0.4% C-phycocyanin solution) was “the decrease in cell activity was suppressed”, the “cell activity (relative fluorescence intensity) on UV irradiation versus no UV irradiation” value ([1]; 2% C-phycocyanin solution) was “the cell activity was even increased” and the “cell activity of cells whose activity was once decreased by UV irradiation” value [2] was “cell activity was recovered”.
